# Laboratory results published in US12162997B2, “Facile assembly of soft nanoarchitectures and co-loading of hydrophilic and hydrophobic molecules via flash nanoprecipitation” (Northwestern University, priority 2016, dated 2024).
# Like-named read-outs stand apart in the source and are kept apart here.
# Legend:
# [1] = Loading efficiency of cargo into polymersomes by fluorescence; type: physicochemical; conditions: FNP, single cargo, FIG. 4A
# Method: The loading efficiency of the target molecule in the nanocarriers by the methods of the present invention is measured as the ratio of target molecule encapsulated within the nanocarrier to the total amount of target molecule available for loading in the initial solution. The loading efficiency is typically greater than about 40% for both proteins and hydrophobic molecules (i.e., […], about 40%, about 45%, about 50%, about 60%, about 70%, about 80%, about 85%, about 90%, or any percentages in between). In some embodiments of the invention, the loading efficiency is greater than at least 45%.
# Nanocarriers were formed using the confined impingement jets (CIJ) mixer described by Han et al. PEG-bl-PPS copolymers and hydrophobic molecules to be loaded within polymersomes were dissolved in 500 μL of tetrahydrofuran (THF) and placed into a 1 mL plastic disposable syringe. […] For fluorescence measurements, samples were taken both before and after column purification to assess loading efficiency. […]
# Fluorescence and absorbance measurements were taken on a SpectraMax M3 microplate reader (Molecular Devices). All readings were taken in black-walled clear bottom 96-well plates (Corning 07-200-567), at 100 μL volumes. All readings were normalized to a 100 μL 1×PBS blank control. […] NBT diformazan was detected via absorbance at 620 nm.
# [2] = ZINC15 database, cited from earlier work
SMILES,loading efficiency into polymersomes [1],logP Values [2],logP Values ([2]; listed as calcein)
"O=C(O)CN(CC(=O)O)Cc1cc2c(cc1O)Oc1cc(O)c(CN(CC(=O)O)CC(=O)O)cc1C21OC(=O)c2ccccc21 [Calcein, calcein]",lowest loading efficiency,1.608,1.6
"CCOC(=O)c1ccccc1-c1c2cc(Br)c(=O)c(Br)c-2oc2c(Br)c([O-])c(Br)cc12.[K+] [Ethyl Eosin, ethyl eosin]",very high loading efficiencies,–,–
"CO[C@H]1C[C@@H]2CC[C@@H](C)[C@@](O)(O2)C(=O)C(=O)N2CCCC[C@H]2C(=O)O[C@H]([C@H](C)C[C@@H]2CC[C@@H](O)[C@H](OC)C2)CC(=O)[C@H](C)/C=C(\C)[C@@H](O)[C@@H](OC)C(=O)[C@H](C)C[C@H](C)/C=C/C=C/C=C/1C [Rapamycin, rapamycin]",–,6.181,–
